Our source for the TD50 and carcinogen call values is PubChem BioAssay AID1745844 (Carcinogenic Potency Database (CPDB), 2022).

This data set has as its system rodent lifetime carcinogenesis bioassay, tumor incidence TD50. Description: chronic cancer bioassays in animals – CPDB, compiled studies (AID 1745844).
[1] abbreviates: mouse, strain B6AKF1, females, oral dosing, site: any site (literature study), lesion: several types, types named in the paper, dosed 76 weeks, study length 76 weeks.
Setting [2] is: mouse, strain B6AKF1, females, oral dosing, site: liver, lesion: hepatoma, dosed 76 weeks, study length 76 weeks.
[3] abbreviates: mouse, strain B6AKF1, females, oral dosing, site: lung, lesion: adenoma, dosed 76 weeks, study length 76 weeks.
The mark [4] stands for this setting: mouse, strain B6AKF1, males, oral dosing, site: any site (literature study), lesion: several types, types named in the paper, dosed 76 weeks, study length 76 weeks.
Where [5] appears, read: mouse, strain B6AKF1, males, oral dosing, site: liver, lesion: hepatoma, dosed 76 weeks, study length 76 weeks.
The mark [6] stands for this setting: mouse, strain B6AKF1, males, oral dosing, site: lung, lesion: adenoma, dosed 76 weeks, study length 76 weeks.
The mark [7] stands for this setting: mouse, strain B6C3F1, females, oral dosing, site: any site (literature study), lesion: several types, types named in the paper, dosed 76 weeks, study length 76 weeks.
[8] abbreviates: mouse, strain B6C3F1, females, oral dosing, site: liver, lesion: hepatoma, dosed 76 weeks, study length 76 weeks.
Setting [9] is: mouse, strain B6C3F1, males, oral dosing, site: any site (literature study), lesion: several types, types named in the paper, dosed 76 weeks, study length 76 weeks.
Setting [10] is: mouse, strain B6C3F1, males, oral dosing, site: liver, lesion: hepatoma, dosed 76 weeks, study length 76 weeks.

Values joined by “and” are separate entries in the source; they are usually repeats but may differ in a detail not shown here. Equal values may be shown once. Active and inactive are the calls of the source. No rule for the calls is given here.

Usually TD50 stands for the dose at which the toxic effect under study appears in half of the subjects. Regarding `NNc1nc(-c2ccc([N+](=O)[O-])o2)cs1`, the TD50 by setting is: (mouse, strain Swiss, females, in feed, site: any site (literature study), lesion: several types, types named in the paper, dosed 46 weeks, study length 55 weeks) 7.57 mg/kg/day; (mouse, strain Swiss, females, in feed, site: forestomach, lesion: squamous-cell papilloma, dosed 46 weeks, study length 55 weeks) 16.4 mg/kg/day; (rat, strain Sprague-Dawley, females, in feed, site: any site (literature study), lesion: several types, types named in the paper, dosed 46 weeks, study length 57 weeks) 2.83 mg/kg/day; (rat, strain Sprague-Dawley, females, in feed, site: kidney, lesion: several types, types named in the paper, dosed 46 weeks, study length 57 weeks) 36.8 mg/kg/day; (rat, strain Sprague-Dawley, females, in feed, site: liver, lesion: cystadenoma, dosed 46 weeks, study length 66 weeks) 295 mg/kg/day; (rat, strain Sprague-Dawley, females, in feed, site: mammary gland, lesion: adenocarcinoma, dosed 46 weeks, study length 57 weeks) 7.79 mg/kg/day. Besides, the TD50 is, setting by setting: (rat, strain Sprague-Dawley, females, in feed, site: mammary gland, lesion: adenocarcinoma, dosed 46 weeks, study length 66 weeks) 10.9 mg/kg/day; (rat, strain Sprague-Dawley, females, in feed, site: mammary gland, lesion: adenofibroma, dosed 46 weeks, study length 57 weeks) 25.2 mg/kg/day; (rat, strain Sprague-Dawley, females, in feed, site: mammary gland, lesion: several types, types named in the paper, dosed 46 weeks, study length 57 weeks) 2.83 mg/kg/day; (rat, strain Sprague-Dawley, females, in feed, site: mammary gland, lesion: several types, types named in the paper, dosed 46 weeks, study length 66 weeks) 3.66 mg/kg/day; (rat, strain Sprague-Dawley, females, in feed, site: salivary gland, lesion: adenocarcinoma, dosed 46 weeks, study length 66 weeks) 145 mg/kg/day.

With `CN(C)C(=O)NC1CC2CC1C1CCCC21` (configuration not stated), the carcinogen call is “negative (inactive)” under setting [1]; “negative (inactive)” under setting [2]; “negative (inactive)” under setting [3]; “negative (inactive)” under setting [4]; “negative (inactive)” under setting [5]; “negative (inactive)” under setting [6]. Further, the carcinogen call under setting [8] is “negative (inactive)” and the carcinogen call (mouse, strain B6C3F1, males, oral dosing, site: lung, lesion: several types, types named in the paper, dosed 76 weeks, study length 76 weeks) is “negative (inactive)”. The TD50 under setting [7] is 1230 mg/kg/day (inactive); the TD50 (mouse, strain B6C3F1, females, oral dosing, site: lung, lesion: adenoma, dosed 76 weeks, study length 76 weeks) was 1230 mg/kg/day (inactive); the TD50 under setting [9] is 259 mg/kg/day (inactive); the TD50 under setting [10] was 359 mg/kg/day (inactive).

With `CN(N=O)c1ncnc2nc[nH]c12`, the TD50 runs as follows: (mouse, strain Swiss CD-1, females, in drinking water, site: liver, lesion: several types, types named in the paper, dosed 104 weeks, study length 104 weeks) 63.2 mg/kg/day; (mouse, strain Swiss CD-1, females, in drinking water, site: mammary gland, lesion: carcinoma, dosed 104 weeks, study length 104 weeks) 28.7 mg/kg/day; (mouse, strain Swiss CD-1, females, in drinking water, site: reproductive tract, lesion: several types, types named in the paper, dosed 104 weeks, study length 104 weeks) 15.8 mg/kg/day; (mouse, strain Swiss CD-1, females, in drinking water, site: uterus, lesion: one or several types, types not named, dosed 104 weeks, study length 104 weeks) 84.9 mg/kg/day; (mouse, strain Swiss CD-1, males, in drinking water, site: liver, lesion: several types, types named in the paper, dosed 104 weeks, study length 104 weeks) 62.6 mg/kg/day; (mouse, strain Swiss CD-1, males, in drinking water, site: lung, lesion: one or several types, types not named, dosed 104 weeks, study length 104 weeks) 18 mg/kg/day and 21.6 mg/kg/day.

`c1ccc2sc(SNC3CCCCC3)nc2c1`: the carcinogen call was “negative (inactive)” under setting [1]; “negative (inactive)” under setting [2]; “negative (inactive)” under setting [3]; “negative (inactive)” under setting [4]; “negative (inactive)” under setting [5]; “negative (inactive)” under setting [6]. The carcinogen call under setting [8] was “negative (inactive)” and the carcinogen call (mouse, strain B6C3F1, females, oral dosing, site: lung, lesion: several types, types named in the paper, dosed 76 weeks, study length 76 weeks) was “negative (inactive)”. The TD50 was 243 mg/kg/day (inactive) under setting [7]; 50.8 mg/kg/day (inactive) under setting [9]; 92.7 mg/kg/day (inactive) under setting [10]; 532 mg/kg/day (inactive) (mouse, strain B6C3F1, males, oral dosing, site: lung, lesion: adenoma, dosed 76 weeks, study length 76 weeks).

Regarding `FC(F)(F)C(Cl)Cl`, the TD50 by setting is: (rat, strain Charles River CD (Sprague-Dawley), females, inhaled, site: liver, lesion: cholangiofibroma, dosed 105 weeks, study length 105 weeks) 22700 mg/kg/day; (rat, strain Charles River CD (Sprague-Dawley), females, inhaled, site: liver, lesion: hepatocellular adenoma, dosed 105 weeks, study length 105 weeks) 20300 mg/kg/day; (rat, strain Charles River CD (Sprague-Dawley), females, inhaled, site: pancreas, lesion: acinar-cell adenoma, dosed 105 weeks, study length 105 weeks) 92100 mg/kg/day; (rat, strain Charles River CD (Sprague-Dawley), males, inhaled, site: liver, lesion: hepatocellular adenoma, dosed 105 weeks, study length 105 weeks) 13100 mg/kg/day; (rat, strain Charles River CD (Sprague-Dawley), males, inhaled, site: pancreas, lesion: acinar-cell adenoma, dosed 105 weeks, study length 105 weeks) 1260 mg/kg/day; (rat, strain Charles River CD (Sprague-Dawley), males, inhaled, site: pancreas, lesion: acinar-cell carcinoma, dosed 105 weeks, study length 105 weeks) 60800 mg/kg/day. Moreover, the TD50 (rat, strain Charles River CD (Sprague-Dawley), males, inhaled, site: testis, lesion: interstitial-cell adenoma, dosed 105 weeks, study length 105 weeks) was 9050 mg/kg/day.

In the case of `CC(=O)N[C@@H](CC(C)C)C(=O)N[C@@H](CC(C)C)C(=O)NC(C=O)CCCN=C(N)N` (some centres not stated), the TD50 reads like this: (mouse, strain A/JJms, females, in feed, site: liver, lesion: liver-cell tumor, type B, dosed 68 weeks, study length 68 weeks) 933 mg/kg/day (inactive); (mouse, strain A/JJms, females, in feed, site: lung, lesion: several types, types named in the paper, dosed 68 weeks, study length 68 weeks) 229 mg/kg/day (inactive); (mouse, strain A/JJms, males, in feed, site: liver, lesion: several types, types named in the paper, dosed 68 weeks, study length 68 weeks) 55.8 mg/kg/day; (mouse, strain A/JJms, males, in feed, site: lung, lesion: several types, types named in the paper, dosed 68 weeks, study length 68 weeks) 422 mg/kg/day (inactive).

For the compound `CC1=C(/C=C/C(C)=C/C=C/C(C)=C/C(=O)O)C(C)(C)CCC1`, the carcinogen call (rat, strain Sprague-Dawley, females, i.p., site: any site (literature study), lesion: malignant tumor, dosed 104 weeks, study length 104 weeks) is “negative (inactive)”. Besides, the TD50 (rat, strain Sprague-Dawley, males, i.p., site: any site (literature study), lesion: malignant tumor, dosed 104 weeks, study length 104 weeks) is 188 mg/kg/day (inactive).

With `CCC(C)[C@H]1O[C@]2(CC[C@@H]1C)CC1C[C@@H](C/C=C(\C)[C@@H](O[C@H]3C[C@H](OC)[C@@H](OC4C[C@H](OC)[C@@H](O)[C@H](C)O4)[C@H](C)O3)[C@@H](C)/C=C/C=C3\CO[C@@H]4[C@H](O)C(C)=C[C@@H](C(=O)O1)[C@]34O)O2` (some centres not stated) (tested in a mixture with another compound), where the note is “rat, strain Wistar, males, in feed, site: forestomach, lesion: one or several types, types not named, dosed 52 weeks, study length 52 weeks”, the carcinogen call was “negative (inactive)”.

Regarding `Nc1ccc(NC(=O)c2ccc(N)cc2)cc1`, the carcinogen call is, setting by setting: (mouse, strain BALB/cLacDp, females, in feed, site: liver, lesion: several types, types named in the paper, dosed 60 weeks, study length 132 weeks) “negative (inactive)”; (mouse, strain BALB/cLacDp, males, in feed, site: liver, lesion: several types, types named in the paper, dosed 60 weeks, study length 132 weeks) “negative (inactive)”; (mouse, strain BALB/cLacDp, males, in feed, site: lung, lesion: several types, types named in the paper, dosed 60 weeks, study length 132 weeks) “negative (inactive)”. Besides, the TD50 (mouse, strain BALB/cLacDp, females, in feed, site: lung, lesion: several types, types named in the paper, dosed 60 weeks, study length 132 weeks) was 360 mg/kg/day (inactive).

In the case of `CC(=O)Nc1ccc2c(c1)C(=O)c1ccccc1-2`, the TD50 (rat, strain Buffalo, females, in feed, site: ear duct, lesion: squamous-cell carcinoma, dosed 86 weeks, study length 86 weeks) is 32 mg/kg/day; the TD50 (rat, strain Buffalo, females, in feed, site: liver, lesion: hepatoma, dosed 86 weeks, study length 86 weeks) was 102 mg/kg/day; the TD50 (rat, strain Buffalo, females, in feed, site: mammary gland, lesion: adenocarcinoma, dosed 86 weeks, study length 86 weeks) is 6.17 mg/kg/day.
